Data on three compounds can be found in patent publication US20220315577A1, “NEW EGFR INHIBITORS” (Hoffmann-La Roche Inc., priority 2019, published 2022).

For the test, the target named is T1, EGFR TMLRCS (T790M/L858R/C797S), BaF3-TMLRCS cell line (Homo sapiens, UniProt P00533, C797S/L858R/T790M).
T1 construct: host or cells: BaF3 (BaF3-TMLRCS, puromycin selection)
T1 sequence (P00533 25-1210 T790M/C797S/L858R): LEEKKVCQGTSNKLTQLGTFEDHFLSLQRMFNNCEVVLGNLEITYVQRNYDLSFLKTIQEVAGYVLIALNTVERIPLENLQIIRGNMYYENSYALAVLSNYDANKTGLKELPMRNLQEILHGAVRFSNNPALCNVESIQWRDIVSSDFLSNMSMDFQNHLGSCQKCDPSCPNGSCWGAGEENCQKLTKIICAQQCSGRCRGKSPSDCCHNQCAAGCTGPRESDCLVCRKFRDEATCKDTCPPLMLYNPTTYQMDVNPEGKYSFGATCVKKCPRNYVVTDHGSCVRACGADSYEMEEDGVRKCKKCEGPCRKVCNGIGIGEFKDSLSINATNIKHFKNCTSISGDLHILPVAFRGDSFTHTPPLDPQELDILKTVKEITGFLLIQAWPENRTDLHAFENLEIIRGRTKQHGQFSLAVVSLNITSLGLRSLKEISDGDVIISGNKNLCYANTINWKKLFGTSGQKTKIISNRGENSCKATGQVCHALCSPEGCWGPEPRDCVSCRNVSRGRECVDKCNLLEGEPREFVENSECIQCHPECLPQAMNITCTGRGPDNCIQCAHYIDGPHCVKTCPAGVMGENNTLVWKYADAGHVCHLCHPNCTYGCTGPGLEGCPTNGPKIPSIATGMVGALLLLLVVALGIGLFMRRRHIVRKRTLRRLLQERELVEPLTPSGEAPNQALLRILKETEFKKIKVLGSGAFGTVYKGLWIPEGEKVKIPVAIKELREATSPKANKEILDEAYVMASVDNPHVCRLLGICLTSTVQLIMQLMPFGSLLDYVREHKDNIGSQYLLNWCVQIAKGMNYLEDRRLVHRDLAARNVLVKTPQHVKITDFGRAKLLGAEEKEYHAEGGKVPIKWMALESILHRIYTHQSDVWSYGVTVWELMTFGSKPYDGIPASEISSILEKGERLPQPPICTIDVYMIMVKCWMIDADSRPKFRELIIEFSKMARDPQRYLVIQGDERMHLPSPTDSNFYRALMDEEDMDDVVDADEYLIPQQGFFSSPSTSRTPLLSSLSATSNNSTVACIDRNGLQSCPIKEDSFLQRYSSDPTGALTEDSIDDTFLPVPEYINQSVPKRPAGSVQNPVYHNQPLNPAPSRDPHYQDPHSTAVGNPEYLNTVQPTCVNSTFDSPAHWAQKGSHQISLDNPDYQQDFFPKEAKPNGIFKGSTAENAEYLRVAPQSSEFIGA
Nature of the test: HTRF Phospho EGFR TMLRCS assay (cellular). In kind it is cell-based. The conditions noted are these: BaF3-TMLRCS cells, 4 hours incubation, Phospho-EGFR HTRF readout. On the procedure: HTRF Phospho EGFR TMLRCS Assay (Cellular)
BaF3-TMLRCS cell line were obtained from Crownbio (San Diego, Calif., USA). Cells were maintained at 37° C., 5% CO2 in RPMI ATCC (Gibco 31870)+2 mM Glutamine+0.5 μg/ml Puromycin supplemented with 10% fetal bovine serum (FBS) (Gibco).
Cells are transferred as above to Greiner Bio-One, Nr. 784-08 micro-titerplate at 20000 cells/well in 12.5 μl of growth medium/well after the plates had been pre-filled with 12.5 nl of DMSO solutions of the to be tested compounds (in dose response) or DMSO only. After spinning the plates at 300×g for 30 seconds the cells were incubated for 4 hours at 37 C, 5% CO2, 95% humidity. The cells were lysed by adding to the compound mix 4 μl/well of the supplemented lysis buffer (Cis-bio, Phospho-EGFR HTRF kit, 64EG1PEH), followed by incubation for 30 min at room temperature with shaking (400 rpm). The plates were then frozen and stored overnight at −80 C. On the next day and after thawing the plates, 4 μl of a mixture of anti-Phospho-EGFR Cryptate and of anti-Phospho-EGFR-d2 antibody solutions prepared in the supplied detection buffer was added to each well. The lidded plates were then incubated for 4 h at room temperature before reading the fluorescence emission at 616 and 665 nm using an Envision reader (Perkin Elmer). Data was analyzed in similar fashion as above using the normalized ratio of the 665 to 616 signals multiplied by 10000.
As for `CCN1CCC(c2ccc(-c3cc(F)c4c(c3)C(=O)N(C(C(=O)Nc3nccs3)c3cc(F)ccc3O)C4)cc2)CC1` (racemic) [Example 1, (2RS)-2-[6-[4-(1-Ethyl-4-piperidyl)phenyl]-4-fluoro-1-oxo-isoindolin-2-yl]-2-(5-fluoro-2-hydroxy-phenyl)-N-thiazol-2-yl-acetamide], the 50% inhibitory concentration (IC50) stood at 12 nM.
Turning to `CCN1CCC(c2ccc(-c3cc(F)c4c(c3Cl)C(=O)N(C(C(=O)Nc3nccs3)c3cc(F)ccc3O)C4)cc2)CC1` (racemic) [Example 2, (2RS)-2-[7-Chloro-6-[4-(1-ethyl-4-piperidyl)phenyl]-4-fluoro-1-oxo-isoindolin-2-yl]-2-(5-fluoro-2-hydroxy-phenyl)-N-thiazol-2-yl-acetamide], the IC50 is 11 nM.
As to `O=C(Nc1nccs1)C(c1cc(F)ccc1O)N1Cc2c(F)cc(-c3ccc(C4CCN(CCF)CC4)cc3)cc2C1=O` (racemic) [Example 3, (2RS)-2-[4-Fluoro-6-[4-[1-(2-fluoroethyl)-4-piperidyl]phenyl]-1-oxo-isoindolin-2-yl]-2-(5-fluoro-2-hydroxy-phenyl)-N-thiazol-2-yl-acetamide], the IC50 came out at 9 nM.
